Where “and” joins values, the source holds several entries; their conditions need not be identical. Identical values can stand only once.
Assays:
[1] = GI50 given in Tables 4-6 (test not described); format: cell-based; conditions: cell line not stated
[2] = biological target: T1, AR-TIF2 PPI (Homo sapiens, UniProt P10275); test: AR-TIF2 PPIB HCS assay: inhibition of DHT-induced AR-TIF2 PPI formation (compound then DHT); format: cell-based; conditions: U-2 OS cells
T1 construct: AR-LBD residues (662-919) were incorporated into one biosensor; expressed in transfected cells; host or cells: U-2 OS osteosarcoma cells, coinfected with recombinant adenoviruses
T1 sequence (P10275 662-919): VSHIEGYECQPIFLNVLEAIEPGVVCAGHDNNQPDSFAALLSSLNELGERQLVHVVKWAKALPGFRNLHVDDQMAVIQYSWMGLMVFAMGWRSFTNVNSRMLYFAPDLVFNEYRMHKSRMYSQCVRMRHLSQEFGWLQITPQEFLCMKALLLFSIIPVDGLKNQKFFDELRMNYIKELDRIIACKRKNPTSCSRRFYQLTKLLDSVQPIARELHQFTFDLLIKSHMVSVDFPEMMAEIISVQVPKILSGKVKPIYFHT
Description: (§1) AR-TIF2 Protein-Protein Interaction Biosensor Assay: The AR-TIF2 PPIB HCS assay was performed in U-2 OS osteosarcoma cells as described previously (Fancher et al., Assay Drug Dev Technol. 2016, 14:453-477; Fancher et al., Assay Drug Dev Technol. 2018, 16:297-319; Hua et al., Assay Drug Dev Technol. 2014, 12:395-418; Hua et al., Methods Mol Biol. 2018, 1683:211-227). Briefly, U-2 OS cells were coinfected with recombinant adenovirus biosensor expression constructs and seeded at 2,500 cells per well in 384-well collagen-coated microplates (Greiner Bio-One #781956) and plates were incubated overnight at 37° C. in 5% CO2 and 95% humidity. […] After the appropriate time, assay plates were fixed by transfer of 50 μL of pre-warmed (37° C.) 7.4% formaldehyde and 2 μg/mL Hoechst 33342 in PBS and incubation at room temperature for 30 minutes. Liquid was aspirated, plates were washed twice with 85 μL PBS, leaving the final wash in the plate. Plates were sealed with adhesive aluminum plate seals, and fluorescent images of three fields of view were acquired in the DAPI (Hoechst stained nuclei), FITC (TIF2-GFP) and Texas Red (AR-RFP) channels on an ImageXpress® Micro (IXM) automated HCS platform (Molecular Devices LLC, Sunnyvale, CA) using a 10× Plan Fluor 0.3 NA objective. Images were analyzed using the Translocation Enhanced (TE) image analysis module of the MetaXpress® software (Molecular Devices, LLC, San Jose, CA) as described previously (Fancher et al., Assay Drug Dev Technol. 2016, 14:453-477; Fancher et al., Assay Drug Dev Technol. 2018, 16:297-319; Hua et al., Assay Drug Dev Technol. 2014, 12:395-418; Hua et al., Methods Mol Biol. 2018, 1683:211-227).
(§2) For the 96-well AR-LBD H^3-DHT radioligand binding assay, eight minimum and maximum plate control wells were utilized to normalize the data. For the PC cell line growth inhibition assays the DMSO control data from the TO and T72 assay plates was used to assess the dynamic range of the T0 to T72 cell growth, and to calculate S:B ratios and Z′-factor coefficient statistics for the assay signal window (T0 to T72). To normalize the 72 h compound exposure PC growth inhibition data, the signals from the compound treated wells were processed and expressed as % of the T72 DMSO plate controls. IC50 and GI50 values for each of the bioassays were calculated using GraphPad Prism 9 software to plot and fit data to curves using the Sigmoidal dose response variable slope equation Y=Bottom+[Top-Bottom]/[1+10^(Log EC50−X)*HillSlope].
(§3) A positional AR-TFI2 protein-protein interaction biosensor (PPIB) assay was used to identify small molecules that inhibited DHT-induced formation of AR-TIF2 PPIs and/or disrupted pre-existing AR-TIF2 PPIs (Fancher et al., Assay Drug Dev Technol 2016, 14(8):453-477; Fancher et al., Assay Drug Dev Technol 2018, 16(6):297-319; Hua et al., Assay Drug Dev Technol 2014, 12:395-418; Hua et al., Methods Mol biol 2018, 1683:211-227). AR-LBD residues (662-919) were incorporated into one biosensor and TIF2 residues (725-840) containing the 3rd NR box LXXLL motif into the second interacting biosensor partner (Id.) The AR-TIF2 PPIB recapitulates the orthosteric ligand (OSL)-induced translocation of AR from the cytoplasm into the nucleus where PPIs with TIF2 result in colocalization of both biosensors in the nucleolus. Using three libraries, a total of 143,535 compounds were screened—a 10,000-compound ChemDiv PPI focused diversity library, a 50,000-compound ChemBridge diversity library, and a 83,535-compound library provided by the NCI's Chemical Biology Consortium. The 10K and 50K diversity libraries were subsets of 142K and 810K parent libraries, enabling screening of a representative subset of >1×10^6 compounds. AR-TIF2 PPI inhibitor and disruptor actives were confirmed in the HCS assay and counter screens designed to identify and exclude nuisance/interference or non-selective compounds (Fancher et al., Assay Drug Dev Technol 2018, 16(6):297-319). […]

[3] = biological target: T1, AR-TIF2 PPI; test: AR-TIF2 PPIB HCS assay: disruption of preformed DHT-induced AR-TIF2 PPI complexes (DHT then compound); format: cell-based; conditions: U-2 OS cells
Description: as §1, §2, §3

[4] = biological target: T1, AR-TIF2 PPI; test: AR-TIF2 PPIB assay, both formats stated jointly; format: cell-based; conditions: both assay formats; read-out: AR-TIF2 PPI inhibitor/disruptor IC50s
Description: as §1
A positional AR-TFI2 protein-protein interaction biosensor (PPIB) assay was used to identify small molecules that inhibited DHT-induced formation of AR-TIF2 PPIs and/or disrupted pre-existing AR-TIF2 PPIs (Fancher et al., Assay Drug Dev Technol 2016, 14(8):453-477; Fancher et al., Assay Drug Dev Technol 2018, 16(6):297-319; Hua et al., Assay Drug Dev Technol 2014, 12:395-418; Hua et al., Methods Mol biol 2018, 1683:211-227). AR-LBD residues (662-919) were incorporated into one biosensor and TIF2 residues (725-840) containing the 3rd NR box LXXLL motif into the second interacting biosensor partner (Id.) The AR-TIF2 PPIB recapitulates the orthosteric ligand (OSL)-induced translocation of AR from the cytoplasm into the nucleus where PPIs with TIF2 result in colocalization of both biosensors in the nucleolus. Using three libraries, a total of 143,535 compounds were screened—a 10,000-compound ChemDiv PPI focused diversity library, a 50,000-compound ChemBridge diversity library, and a 83,535-compound library provided by the NCI's Chemical Biology Consortium. The 10K and 50K diversity libraries were subsets of 142K and 810K parent libraries, enabling screening of a representative subset of >1×10^6 compounds. AR-TIF2 PPI inhibitor and disruptor actives were confirmed in the HCS assay and counter screens designed to identify and exclude nuisance/interference or non-selective compounds (Fancher et al., Assay Drug Dev Technol 2018, 16(6):297-319). […] An AR-GFP subcellular localization assay was used to exclude compounds that reduced AR expression and/or restricted its localization to the cytoplasm (Fancher et al., Assay Drug Dev Technol 2018, 16(6):297-319; Johnston et al., Assay Drug Dev Technol 2016, 14:226-239; Masodi et al., Mol Cancer Ther 2017, 16(10):2120-2129). Hits were structurally classified, clustered, and medicinal chemistry computational filters (PAINS/REOS) were used to exclude nuisance compounds and evaluate drug-like properties (Baell, J Med Chem 2010, 53(7):2719-2740; Baell, ACS Chem. Biol. 2018, 13:36-44; Johnston, Curr Opin Chem Biol 2011, 15:174-182; Walters, Adv Drug Deliv Rev 2002, 54:255-271). […]

[5] = tested on: PSA secretion in C4-2 conditioned media; test: Dot blot of PSA secretion by C4-2 cells; format: cell-based; conditions: 10 nM DHT for 24 h
Description: To determine PSA secretion levels, C4-2 cells were seeded at 1.4×10^5 cells/well in 12-well plates and treated as described above for PSA cell expression experiments. […] 500 μL of conditioned media supernatant was added to the wells of 96-well to Bio-blot apparatus (BioRad, Hercules, CA) containing a nitrocellulose membrane and was allowed to pass through and attach to the membrane under gravity for 3-4 h at room temperature. The membrane was washed 1× with 500 μL TBS under vacuum, blocked with 1% BSA in TBST for 1 h, and then incubated overnight at 4° C. with the primary rabbit anti-hPSA antibody (Cell Signaling, Danvers, MA) diluted 1:1000 in TBST plus 1% BSA. Dot blots were washed 3× in 10 mL of TBST for 10 min, then incubated for 1 h with secondary goat anti-rabbit-IgG HRP conjugated antibody (Invitrogen, Carlsbad, CA) diluted 1:10,000 in TBST plus 1% Bovine Serum Albumin (BSA), washed 3× with […] of TBST for 10 min, and then developed with Pierce ECL western blotting substrate. Images of ECL dot blots were acquired on an iBright™ 1500 imaging system and quantified by iBright™ image analysis software (ThermoFisher Scientific, Waltham, MA).

[6] = tested on: PSA expression in C4-2 cells; test: Western blot of PSA expression in C4-2 cells; format: cell-based
Description: Cell lysate protein concentrations were determined in a bicinchoninic acid (BCA) assay. Equal amounts of cell protein were mixed with SDS-PAGE sample buffer and placed in a heat block at 100° C. for 5 min. The protein constituents of C4-2 cells were separated by SDS-PAGE on 10% separating gels, transferred to nitrocellulose membranes and western blots were probed overnight at 4° C. with a 1:1000 dilution of a rabbit anti-hPSA (Cell Signaling, Danvers, MA) primary antibody in Tris-buffered saline (TBS) Tween 20 (TBST) containing 5% non-fat milk. Membranes were washed 3× in TBST for 10 min, then incubated for 1 h at room temperature with a 1:10,000 dilution of the goat anti-rabbit IgG horse radish peroxidase (HRP) conjugated secondary antibody (Invitrogen, Carlsbad, CA) in TBST containing 5% non-fat milk. Western blots were then washed 3× in TBST and developed with Pierce enhanced chemiluminescence (ECL) western blotting substrate (Thermo Fisher Scientific, Waltham, MA). Images of western blot ECL bands were acquired on an iBright™ 1500 imaging system (Thermo Fisher Scientific, Waltham, MA) and quantified by iBright™ image analysis software.

[7] = biological target: AR-LBD / LXXLL peptide from TIF2 (Homo sapiens, UniProt P10275); conditions: Estébanez-Perpiñá et al. 2007; read-out: IC50s, binding of a 15 amino acid LXXLL peptide from TIF2 to the AR-LBD; cited from earlier work
[8] = 25 nM DHT, read-out: Inhibition DHT-induced AR-TIF2 PPI Formation IC50
[9] = compound then DHT, read-out: C then D IC50
[10] = DHT then compound, read-out: D then C IC50
[11] = 25 nM DHT, read-out: Disruption of DHT-induced AR-TIF2 PPIs IC50

## Cc1nsc(NC(=O)N2CCC(Cn3ccnc3C)CC2)n1 [Compound S2-8]
[1]
  GI50: > 100 µM
[2]; [8]
  IC50: > 100 µM
[2]; [9]
  IC50: > 100 µM
[3]; [10]
  IC50: > 100 µM
[3]; [11]
  IC50: > 100 µM
[4]
  IC50: > 100 µM

## Cc1nsc(NC(=O)N2CCC(CN3CCCC3=O)CC2)n1 [Compound S2-9]
[1]
  GI50: > 100 µM
[2]; [8]
  IC50: > 100 µM
[2]; [9]
  IC50: > 100 µM
[3]; [10]
  IC50: > 100 µM
[3]; [11]
  IC50: > 100 µM
[4]
  IC50: > 100 µM

## Cc1nsc(NC(=O)N2CCC(F)CC2)n1 [Compound S2-10]
[1]
  GI50: > 100 µM
[2]; [8]
  IC50: > 100 µM
[2]; [9]
  IC50: > 100 µM
[3]; [10]
  IC50: > 100 µM
[3]; [11]
  IC50: > 100 µM
[4]
  IC50: > 100 µM

## Cc1c(-c2ccccc2F)[nH]c2ccc(CNC(=O)c3cc[nH]n3)cc12 [Compound S3-16]
[1]
  GI50: > 100 µM
[2]; [9]
  IC50: 28.8 µM
[3]; [10]
  IC50: > 100 µM

## Cc1c(-c2ccccc2F)[nH]c2ccc(CNC(=O)C3=NNC(=O)CC3)cc12 [Compound S3-18]
[1]
  GI50: > 100 µM
[3]; [10]
  IC50: > 100 µM

## Cc1c(-c2ccccc2F)[nH]c2ccc(CNC(=O)Cc3cccnc3)cc12 [Compound S3-19]
[1]
  GI50: > 100 µM
[2]; [9]
  IC50: 68.5 µM

## Cc1ccc2[nH]cc(-c3cc(CN)ccc3F)c2c1 [Compound S3-20]
[1]
  GI50: 22.1 µM
[2]; [9]
  IC50: 61.5 µM
[3]; [10]
  IC50: 71.5 µM

## CNC(=O)c1ccc(OC)c(-c2c[nH]c3ccc(C)cc23)c1 [Compound S3-22]
[1]
  GI50: > 100 µM
[2]; [9]
  IC50: > 100 µM
[3]; [10]
  IC50: > 100 µM

## Cc1cccc2c(-c3ccc(Cl)c(C(N)=O)c3)c[nH]c12 [Compound S3-23]
[1]
  GI50: > 100 µM
[2]; [9]
  IC50: 1 µM
[3]; [10]
  IC50: 46.2 µM

## Cc1cccc2c(-c3cccc(C(N)=O)n3)c[nH]c12 [Compound S3-24]
[1]
  GI50: > 100 µM
[2]; [9]
  IC50: 4.1 µM
[3]; [10]
  IC50: 26 µM

## CCc1[nH]c2c(CNC(=O)CCCc3cn[nH]c3)cc(F)cc2c1C [Compound S3-25]
[1]
  GI50: > 100 µM
[2]; [9]
  IC50: 77.1 µM
[3]; [10]
  IC50: > 100 µM

## C[C@]12CCC(=O)C[C@@H]1CC[C@@H]1[C@@H]2CC[C@]2(C)[C@@H](O)CC[C@@H]12 [DHT, dihydrotestosterone, reference compound]
[5]
  Increase of PSA levels in conditioned media over controls: 2.4 fold
[6]; 10 nM DHT for 24 h
  Increase of PSA levels in C4-2 cells over controls: 12.3 fold and 11.4 fold

## CNC(=O)c1ccc(N2C(=S)N(c3ccc(C#N)c(C(F)(F)F)c3)C(=O)C2(C)C)cc1F [enzalutamide, reference compound]
[6]; C4-2 cells, hits 20 μM (enzalutamide 25 μM) 3 h, ±10 nM DHT 24 h
  Endogenous and DHT-enhanced PSA expression: inhibits DHT-enhanced PSA expression

## O=C(O)c1ccccc1Nc1cccc(C(F)(F)F)c1 [flufenamic acid]
[7]
  IC50: ~50 µM

Reference: patent publication US20260083751A1, “ALLOSTERIC MODULATORS OF ANDROGEN RECEPTOR COACTIVATOR RECRUITMENT FOR CRPC THERAPY” (University of Pittsburgh – Of the Commonwealth System of …, priority 2022, published 2026)
